Experiments:
[1] = mouse, iv
Procedure: (§1) At points of 5 minutes, 15 minutes, 30 minutes, 60 minutes, and 120 minutes after the administration, organs were dissected out of the mice, respectively (n=5). The weight and the radioactivity of each organ were determined, and an accumulation amount (% dose/g) of the molecular probe was calculated from the radioactivity per unit weight. […] FIG. 1A is a graph showing how the accumulation of the molecular probe in each organ varied with time, and FIG. 1B is a graph of an enlarged part of FIG. 1A.
1, biodistribution of the same in a mouse was determined. […] The determination of biodistribution was carried out in the same manner as that in Example 1.
as §1, with “5A” for “1A”, “5B” for “1B”, “5A.” for “FIG. 1A.”

pancreatic β-cells = test: Two-dimensional imaging analysis of pancreas sections of MIP-GFP mice (fluorescence and autoradiography); format: in vivo, mouse
Procedure: Two-dimensional imaging analysis was performed using transgenic mice that have a genetic background of C57BL/6 mice and express GFP (green fluorescent protein) under regulation of MIP (mouse insulin I gene promoter) (hereinafter these mice are referred to as “MIP-GFP mice”). […] Sections were cut out of the dissected pancreases, and each section was placed on a slide glass, covered with a cover glass. Fluorescence and radioactivity (autoradiography) of each section were determined using an image analyzer (trade name: Typhoon 9410, produced by GE Health Care Inc.) (exposure time: 14 hours).
Sections were cut out of the dissected pancreases, and fluorescence and radioactivity of each section were determined in the same manner as described above.
DPP (dipeptidyl peptidase) IV inhibitor (0.1 mL of 6 mg/mL solution) was administered by intravenous injection to unanesthetized MIP-GFP mice (male, weight: 20 g), and these mice were used as controls 1-2. […] Sections were cut out of the dissected pancreases, and fluorescence and radioactivity of each section were determined in the same manner as described above. […]
Sections were cut out of the dissected pancreases, and fluorescence and radioactivity of each section thus obtained were determined in the same manner as described above.

[2] = tested on: GLP-1R-positive tumor cells; settings: cited from earlier work
pancreatic islets = settings: cited from earlier work

Substance | accumulation amount in the pancreas, times as much as that in the intestine ([1]; in vivo) | accumulation amount in the pancreas, times as much as that in the stomach ([1]; in vivo) | change with time of accumulation in the thyroid gland (deiodization metabolism in vivo) [1] | localization of the radioactivity signal versus GFP signal in pancreas sections (pancreatic β-cells; 30 and 60 minutes after administration) | radioactivity signal of pancreas sections after preliminary administration of cold probe exendin(9-39) (pancreatic β-cells; 30 minutes after probe) | uptake in the GLP-1R-positive tumor cells [2] | uptake in pancreatic islets (pancreatic islets)
formula (35): exendin(9-39) sequence, α-amino group at N-terminus labeled with [125I] 3-iodobenzoyl group, C-terminus amidated | not less than 11 times | not less than 3 times | no great change | consistent with that of the GFP signal | substantially no radioactivity signal was detected | – | –
Lys^40(Ahx-DTPA-^111In)Exendin-(9-39) | – | – | – | – | – | about 7.5% | about 0.4%

Source: patent publication US8642008B2, “Molecular probe for imaging of pancreatic islets and use of the same” (priority 2009, dated 2014)
